Reference: patent publication US20030077740A1, “Presenilin/Crk binding polypeptides (PCBP) and methods of use thereof” (priority 2001, published 2003)
Blank lines part the entries; values can stand above or below the molecule they belong to. Residues, ends and D or L forms follow the SMILES beside them. *: point of attachment. Cbz = O=C(OCc1ccccc1)*

Assays:
APP695/PBP cells = assay: protease inhibitors on APP secretion and intracellular accumulation; type: cell-based, rat
Description: Cells and transfection: Neuronal cell line B103 (Schubert et al. (1974) Nature, 249, 224-227) was grown in Dulbecco's modified Eagle's medium (DMEM) supplemented with 10% heat-inactivated fetal bovine serum (FBS). B103 cells were transfected with APP695 using G418 selection (Schubert et al. (1989) Neuron, 3: 689-694) and with various plasmids by Lepfectamin2000 (GIBCO; NJ, USA) using puromycin selection for PBP or hygromycin for PS1, respectively. The stably transfected cells were subsequently cloned and screened for protein expression by western blot analysis.
Western blotting, metabolic labeling and immunoprecipitation: For western blotting, cells were washed twice with ice-cold PBS and lysed in lysis buffer (1% Triton, 50 mM Hepes pH 7.5, 50 mM NaCl, 5 mM EDTA, 1 mM Na3VO4, 50 mM NaF, 10 mM Na4P2O7, plus a mixture of protease inhibitors (Complete Mini; Roche, Ind., USA). Protein concentrations were determined by Coomassie Plus (Pierce; IL, USA). The same amount of protein from each sample was separated on Novex pre-cast polyacrylamide gels (Invitrogen; CA, USA), and transferred to Immobulin membranes (Millipore; MA, USA). The membranes were blocked with 5% non-fat milk in Tris-buffered saline for 1 hour at room temperature. Following overnight incubation at 4° C. with primary antibodies, the antigens are detected with horseradish peroxidase-conjugated secondary antibodies (Bio-Rad; CA, USA; 1:20,000), an ECL kit (Amersham; NJ, USA), and exposed to films. For pulse-chase experiments, cells were grown to 80% confluency and incubated in methionine-free DMEM for 90 min. Cells were labeled with [^35]S-methionine (400 μCi/ml in methionine-free DMEM plus 5% dialyzed FBS) for 10 min at 37° C., and the medium was replaced with serum-free DMEM medium plus Ni-supplement (Sigma Inc.; MI, USA). The media were collected and cells were lysed after different time periods. Protein concentrations were determined and the same amounts of proteins were immunoprecipitated with antibodies at 4° C. overnight 25 μl of anti-mouse IgG agarose (Roche) was then added to each sample and incubated at 4° C. for 2 hours on a rocker platform. The immunoprecipitates were collected by centrifugation and washed 4 times with the washing buffer (0.1% Triton, 20 mM Hepes, 150 mM NaCl, 10% glycerol). The agarose beads were resuspended in 30 μl SDS-PAGE sample buffer boiled for 3 min to release the proteins. After 2 min of centrifugation, the supernatants were separated on 8% Tri-glycine gels. The gels were dried and subjected to autoradiography and quantitated by NIH image.
To independently verify the data on APP degradation, the effect of two protease inhibitors, leupeptin and MG132, on the secretion and the intracellular accumulation of APP was studied. Leupeptin is thought to inhibit lysosomal proteases, whereas MG132 is thought to inhibit ER membrane protein degradation through the ubiquitin-proteasome pathway (Soriano et al. (1999) J. Biol. Chem., 274: 32295-32300).

B103 (APP695) cells = assay: APP secretion by transfected B103 (APP695) cells, Western blotting; type: cell-based, rat; conditions: overexpression of the protein
[1] = biological target: T1, large hydrophilic loop of PS1 (Homo sapiens, UniProt P49768); assay: co-immunoprecipitation in 293T cells, PS1 loop; type: binding; conditions: immunoprecipitation with anti-TAG, 48 hrs after transfection, PS1-FLAG loop
T1 construct: and a large hydrophilic loop (amino acids 263-407); expressed in transfected cells; host or cells: 293T human kidney cells, pCIS2 expression vector
Description: To confirm the yeast two-hybrid data, the interaction between PBP and PSs was assayed in mammalian cells by immunoprecipitation. Human kidney 293-T cells, and monkey kidney COS-7 cells were cultured in Dulbecco's modified Eagle's medium supplemented with 10% fetal calf serum at 37° C. in a 10% CO2 atmosphere. A nine-amino acid TAG epitope ([…]) (SEQ ID NO:6) was incorporated in-frame at the 3′ end of the PBP cDNA (PBP-TAG), and an eight amino acid FLAG epitope ([…]) (SEQ ID NO:7) was attached in frame at the 5′ end of the large hydrophilic loop of PS1 cDNA and at the 3′ end of full length PS1 cDNA as described previously (Kimura, H., Proc. Natl. Acad. Sci. (USA), 90:2165-2169 (1993)). The resulting fragments were inserted into the pCIS2 expression vector (Genentech, San Francisco, Calif.) for transient or constitutive expression. […]
For immunoprecipitation of the large hydrophilic loop of PSs or Crk with PBP, cells were lysed in RIPA buffer (100 mM NaCl, 0.5% NP-40, 0.5% DOC, 0.1% SDS, 50 mM Tris, pH 7.5, 1 mM PMSF and 1 μg/ml aprotinin, 1 μg/l leupeptin) on ice for 30 min. […] The bound antibodies were detected by the ECL-plus chemiluminescence system (Amersham, Arlington Heights, Ill.).

PS1 = biological target: T2, PS1 (Homo sapiens, UniProt P49768); assay: yeast two-hybrid interaction with PS1; type: binding; conditions: yeast two-hybrid assay
T2 construct: the large hydrophilic loop region of PS1 (amino acids 1-81, 429-468, 263-407, respectively) were inserted into the pGBT9 vector; expressed in transfected cells; host or cells: yeast Y190

PBP = conditions: PS fragment fused to GAL4-DNA binding domain, PBPα-GAL4 activation domain, β-galactosidase assay
Description: The yeast two-hybrid system was used to screen for cytoplasmic proteins that interact with PSs. […] Yeast (Y190) were co-transformed with each of the PS1 constructs and a mouse brain cDNA library fused to the GAL4 activation domain in the pGAD424 vector (Clontech). Transformants were plated on yeast drop-out media (Clontech) contain g 20 mM 3-amino-1,2,4-triazole (3-AT), and after 10 days of incubation at 30° C., colonies were transferred to Nitropure membrane Micron Separation Inc., Westboro, MA), and the X-gal assay was performed.
To determine the minimal sequence of the large hydrophilic loop of PS that is required for the interaction with PBP, three deletion fragments of the loop were inserted into pGBT9 and the interaction with PBP was examined using the yeast two-hybrid system.

[2] = 100 μM, either cells, data not shown

Molecule: CC(C)C[C@@H](C=O)NC(=O)[C@H](CC(C)C)NC(=O)[C@H](CC(C)C)NC(=O)OCc1ccccc1 [MG132] (Cbz-Leu-Leu-Leu-aldehyde)
APP secretion (APP695/PBP cells; 10 μM, APP695/PBP cells): significantly increased | intracellular accumulation of APP (APP695/PBP cells; 10 μM, APP695/PBP cells): significantly increased | secretion of APP in cells expressing PBP (APP695/PBP cells; after 16 hours of treatment): almost restored to the control level

Molecule: CC(=O)N[C@@H](CC(C)C)C(=O)N[C@@H](CC(C)C)C(=O)N[C@H](C=O)CCCNC(=N)N [leupeptin]
APP secretion (APP695/PBP cells; [2]): no effect | intracellular accumulation of APP (APP695/PBP cells; [2]): no effect

interaction with PS1 [1]: did not show any interaction | functional interaction with PS1 (PS1): nor did it functionally interact
Molecule: Dock 180: protein 40% homologous to PBP, has a SH3 domain and interacts with Crk [reference compound]
secretion of APP (B103 (APP695) cells): not affected

Molecule: EERGVKLGLGDFIFYSVLVGKA [consensus]
interaction with PBP (PBP): exhibit an interaction
